US20080176870A1, “Heterobicyclic metalloprotease inhibitors” (priority 2006, published 2008)

Biological target: T1, catalytic domain of MMP-13 enzyme (Homo sapiens, UniProt P45452)
T1 construct: 10 μL of a 50 nM stock solution of catalytic domain of MMP-13 enzyme (produced by Alantos)
Experiment: Assay for determining MMP-13 inhibition (fluorescent substrate)
Format: biochemical
Conditions: Table 1, Summary of MMP-13 Activity for Compounds; read-out: MMP-13 Activity (IC50 MMP-13), Group
Experimental: Assay for Determining MMP-13 Inhibition
The typical assay for MMP-13 activity is carried out in assay buffer comprised of 50 mM Tris, pH 7.5, 150 mM NaCl, 5 mM CaCl2 and 0.05% Brij-35. Different concentrations of tested compounds are prepared in assay buffer in 50 μL aliquots. 10 μL of a 50 nM stock solution of catalytic domain of MMP-13 enzyme (produced by Alantos) is added to the compound solution. The mixture of enzyme and compound in assay buffer is thoroughly mixed and incubated for 10 min at room temperature. Upon the completion of incubation, the assay is started by addition of 40 μL of a 12.5 μM stock solution of MMP-13 fluorescent substrate (Calbiochem, Cat. No. 444235). The time-dependent increase in fluorescence is measured at the 320 nm excitation and 390 nm emission by automatic plate multireader. The IC50 values are calculated from the initial reaction rates.

`Cc1c(C(=O)O)ccc2c1CCC2NCc1cc(C(=O)NCc2ccc(F)c(F)c2)nc2ccnn12` (stereo not shown) [Example 29, 1-{[5-(3,4-difluoro-benzylcarbamoyl)-pyrazolo[1,5-a]pyrimidin-7-ylmethyl]-amino}-4-methyl-indan-5-carboxylic acid] and `Cc1c(C(=O)O)ccc2c1CCC2N(CC(=O)O)Cc1cc(C(=O)NCc2ccc(F)c(F)c2)nc2ccnn12` (stereo not shown) [Example 32, 1-{carboxymethyl-[5-(3,4-difluoro-benzylcarbamoyl)-pyrazolo[1,5-a]pyrimidin-7-ylmethyl]-amino}-4-methyl-indan-5-carboxylic acid] cannot be ordered by IC50: < 200 nM for the first, < 200 nM for the second.

`O=C1COc2ccc(CNC(=O)c3cc(-c4nn[nH]n4)n4ncc(F)c4n3)cc2N1` [Example 141] and `CC(C)(C)c1noc(-c2cc(C(=O)NCc3ccc4c(c3)NC(=O)CO4)nc3c(F)cnn23)n1` [Example 163] cannot be ordered by IC50: < 200 nM for the first, < 200 nM for the second.

`CC(C)(C)n1nnc(-c2cc(C(=O)NCc3ccc4c(c3)NC(=O)CO4)nc3ccnn23)n1` [Example 152] and `O=C1COc2ccc(CNC(=O)c3cc(-c4nnn(Cc5ccc(C(=O)O)cc5)n4)n4nccc4n3)cc2N1` [Example 160] cannot be ordered by IC50: < 200 nM for the first, < 200 nM for the second.

`O=C1COc2ccc(CNC(=O)c3cc(C(F)(F)F)n4ncnc4n3)cc2N1` [Example 188] and `N#Cc1cc(C(=O)NCc2ccc3c(c2)NC(=O)CO3)nc2ncnn12` [Example 190] fall in the same range of IC50: 201 to 20000 nM for the first, 201 to 20000 nM for the second.

`Cc1cc(CNC(=O)c2cc(C(=O)O)n3nccc3n2)ccc1F` [Example 193] and `O=C(NCc1ccc(F)cc1)c1cc(NC(=O)C23CCC(C(=O)O)(CC2)CC3)n2nccc2n1` [Example 209] fall in the same range of IC50: 201 to 20000 nM for the first, 201 to 20000 nM for the second.

`Nc1c(N2CCc3ccc(CNC(=O)c4cc(C(=O)O)n5ncnc5n4)cc3C2)c(=O)c1=O` [Example 195] and `Cc1c(C(=O)O)ccc2c1CC[C@@H]2NC(=O)c1cc(C(=O)NCc2ccc3c(c2)NC(=O)CO3)nc2ccccc12` [Example 211] fall in the same range of IC50: 201 to 20000 nM for the first, 201 to 20000 nM for the second.

For `O=C(NCC12CCC(C(=O)O)(CC1)CC2)Nc1cc(C(=O)NCc2ccc(F)cc2)nc2ccnn12` [Example 208], the IC50 was < 200 nM.
